Data as given in paper PMC12228687, “Harnessing protein language model for structure-based discovery of highly efficient and robust PET hydrolases” (Nature Communications, 2025).

Target: T1, FastPETase (mutant derived from IsPETase) (Pseudideonella sakaiensis, UniProt A0A0K8P6T7, S121E/D186H/R224Q/N233K/R280A, form not given)
T1 construct: gene ISF6_4831; engineered variant FastPETase; construct not described in the main text
Experiment: p-nitrophenol release at […] nm, Michaelis-Menten nonlinear fit
Type: biochemical
Settings: 10 mM potassium phosphate pH 8.0 (stock buffer), 50 °C, 3 min, 0.5 µg/mL enzyme, 0.2-1.8 mM pNPB

T1 sequence (A0A0K8P6T7 28-290 S121E/D186H/R224Q/N233K/R280A, form open): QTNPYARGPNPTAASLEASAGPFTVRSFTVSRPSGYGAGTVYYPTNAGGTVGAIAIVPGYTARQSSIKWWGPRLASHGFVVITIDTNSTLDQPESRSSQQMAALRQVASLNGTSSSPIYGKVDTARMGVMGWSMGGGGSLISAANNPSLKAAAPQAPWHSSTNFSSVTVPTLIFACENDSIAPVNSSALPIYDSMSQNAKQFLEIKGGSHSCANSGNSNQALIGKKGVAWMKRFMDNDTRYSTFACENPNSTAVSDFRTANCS

Work on `CCCC(=O)Oc1ccc([N+](=O)[O-])cc1` [p-nitrophenyl butyrate] yielded a Km of 1570 ± 416 µM.
